In patent publication US12648946B2, “Combination of antibody-pyrrolobenzodiazepine derivative conjugate and PARP inhibitor” (DAIICHI SANKYO COMPANY, LIMITED, priority 2019, dated 2026) one finds IC50 and inhibition data, which are given here for two compounds.

A word on the IC50: it is the midpoint of a concentration-inhibition curve. For orientation: inhibition means the percentage by which the read-out fell short of the control. Low values mean a weak effect, high ones a strong effect.

Read-outs that look alike come from different tables or passages of the source.

Experiment [1] deals with human lung cancer cell line Calu-6. The experiment in a line: Cell growth inhibition test (1). The class given is cell-based. The settings on record: for IC50: Calu-6, 144 h. The procedure: The human lung cancer cell line Calu-6 obtained from ATCC (American Type Culture Collection) was used for evaluation. Cells were prepared with MEM containing 10% fetal bovine serum (GE Healthcare), MEM Non-Essential Amino Acids Solution (Thermo Fisher Scientific), and Sodium Pyruvate (Thermo Fisher Scientific) (Thermo Fisher Scientific; hereinafter, referred to as EMEM medium) to reach 1.25×10^4 cells/mL, and 80 μL portions of them were added into a 96-well cell culture microplate. After addition of the cells, the cells were cultured at 37° C. and 5% CO2 overnight.
(§1) On the next day, 10 μL portions of pyrrolobenzodiazepine derivative A, B, or C diluted with EMEM medium to 100 pM, 50 pM, 25 pM, 12.5 pM, 6.25 pM, 3.13 pM, 1.56 pM, or 0.78 pM were added to the microplate. To each well without any pyrrolobenzodiazepine derivative, 10 μL of EMEM medium was added. Further, 10 μL portions of olaparib prepared with EMEM medium to reach 2 μM were added to the microplate. To each well without olaparib, 10 μL of EMEM medium was added. Thereafter, the microplate was cultured at 37° C. and 5% CO2 for 6 days. After culturing, the microplate was taken out of the incubator, and left to stand at room temperature for 30 minutes. CellTiter-Glo Luminescent Cell Viability Assay (Promega Corporation) in an amount equivalent to that of the culture solution was added, and stirred using a plate mixer. The microplate was left to stand at room temperature for 10 minutes, and thereafter the amount of emission was measured by using a plate reader (PerkinElmer).
Cell survival rates in wells with derivative A, B, or C were calculated by using the following formula.
(§2) [formula] • a: Mean value of amounts of emission from wells with derivative A, B, or C • b: Mean value of amounts of emission from wells with medium • IC50 values were calculated by using the following formula.
(§3) [formula] • a: Concentration of derivative A, B, or C, a • b: Concentration of derivative A, B, or C, b • c: Cell survival rate when derivative A, B, or C of concentration a was added • d: Cell survival rate when derivative A, B, or C of concentration b was added • a and b satisfy a>b at points sandwiching a cell survival rate of 50%.
Cell survival rates in wells with derivative A, B, or C added together with 2 μM olaparib were calculated by using the following formula.
[formula] a: Mean value of amounts of emission from wells with derivative A, B, or C added together with 2 μM olaparib • b: Mean value of amounts of emission from wells with 2 μM olaparib • IC50 values were calculated by using the following formula.
[formula] • a: Concentration of derivative A, B, or C, a • b: Concentration of derivative A, B, or C, b • c: Cell survival rate when derivative A, B, or C of concentration a and 2 μM olaparib were added • d: Cell survival rate when derivative A, B, or C of concentration b and 2 μM olaparib were added • a and b satisfy a>b at points sandwiching a cell survival rate of 50%.

Experiment [2] deals with human pharyngeal cancer cell line FaDu. As to the kind of experiment: Cell growth inhibition test (2). The settings on record: 144 h. It is filed as cell-based. The procedure: The human pharyngeal cancer cell line FaDu obtained from ATCC (American Type Culture Collection) was used for evaluation. Cells were prepared with MEM containing 10% fetal bovine serum (GE Healthcare), MEM Non-Essential Amino Acids Solution (Thermo Fisher Scientific), and Sodium Pyruvate (Thermo Fisher Scientific) (Thermo Fisher Scientific; hereinafter, referred to as EMEM medium) to reach 6.25×10^3 cells/mL, and 80 μL portions of them were added into a 96-well cell culture microplate. After addition of the cells, the cells were cultured at 37° C. and 5% CO2 overnight.
as §1, with “reach 1” for “reach 2”
Cell survival rates in wells with derivative A, B, or […] were calculated by using the following formula.
as §2, §3
Cell survival rates in wells with derivative A, B, or C added together with 1 μM olaparib were calculated by using the following formula.
[formula] • a: Mean value of amounts of emission from wells with derivative A, B, or C added together with 1 μM olaparib • b: Mean value of amounts of emission from wells with 1 μM olaparib • IC50 values were calculated by using the following formula.
[formula] • a: Concentration of derivative A, B, or C, a • b: Concentration of derivative A, B, or C, b • c: Cell survival rate when derivative A, B, or C of concentration a and 1 μM olaparib were added • d: Cell survival rate when derivative A, B, or C of concentration b and 1 μM olaparib were added • a and b satisfy a>b at points sandwiching a cell survival rate of 50%.

As for `COc1ccc(C2=CN3C(=O)c4cc(OC)c(OCCCCCOc5cc6c(cc5OC)C(=O)N5CC7(CC7)C[C@H]5C=N6)cc4NC[C@@H]3C2)cc1` [derivative A, (11a′S)-7′-Methoxy-8′-[(5-{[(11aS)-7-methoxy-2-(4-methoxyphenyl)-5-oxo-5,10,11,11a-tetrahydro-1H-pyrrolo[2,1-c][1,4]benzodiazepin-8-yl]oxy}pentyl)oxy]-1′,11a′-dihydro-5′H-spiro[cyclopropane-1,2′-pyrrolo[2,1-c][1,4]benzodiazepine]-5′-one], the IC50 was found to be 6.8 pM in experiment [1] (read-out: IC50, growth-suppressing effect, added singly, Calu-6, 6 days); 4.3 pM in experiment [1] (read-out: IC50, growth-suppressing effect, added together with 2 μM olaparib, Calu-6, 6 days); 8.6 pM in experiment [2] (read-out: IC50, growth-suppressing effect, added singly, FaDu, 6 days (test 2)); 4.4 pM in experiment [2] (read-out: IC50, growth-suppressing effect, added together with 1 μM olaparib, FaDu, 6 days).
On to `O=C(c1cc(Cc2n[nH]c(=O)c3ccccc23)ccc1F)N1CCN(C(=O)C2CC2)CC1` [olaparib, reference compound], for which, in experiment [1] (144 h, 2 μM olaparib alone, Calu-6, 6 days), the inhibition at 2 µM is less than 10%. In experiment [2] (1 μM olaparib alone, 6 days), this compound had an inhibition at 1 µM of less than 10%.
